Measurements taken from PMC9339071, “Toward in vivo proof of binding of ^18F-labeled inhibitor [^18F]TRACK to peripheral tropomyosin receptor kinases” (EJNMMI Research, 2022).

Biological target: T1, TrkA (tropomyosin 3-TrkA fusion protein, TPM3-NTRK1) (Homo sapiens, UniProt P04629)
T1 construct: tropomyosin 3-TrkA fusion protein (TPM3-NTRK1), endogenous in KM12 cells
Assay: competition with [18F]TRACK radiotracer uptake in intact KM12 cells
Format: cell-based

T1 sequence (P04629 405-796 limits assumed): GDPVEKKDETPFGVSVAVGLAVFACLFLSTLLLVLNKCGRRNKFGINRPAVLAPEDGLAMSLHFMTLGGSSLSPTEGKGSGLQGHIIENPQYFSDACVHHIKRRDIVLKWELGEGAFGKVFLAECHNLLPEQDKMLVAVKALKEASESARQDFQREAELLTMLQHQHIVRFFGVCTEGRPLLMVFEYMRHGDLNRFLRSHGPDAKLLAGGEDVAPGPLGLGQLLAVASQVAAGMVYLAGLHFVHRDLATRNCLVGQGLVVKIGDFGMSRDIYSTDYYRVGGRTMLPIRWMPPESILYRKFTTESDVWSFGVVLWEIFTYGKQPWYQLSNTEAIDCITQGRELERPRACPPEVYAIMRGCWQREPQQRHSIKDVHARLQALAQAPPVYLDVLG
T1 sequence (P06753 2-285 partner): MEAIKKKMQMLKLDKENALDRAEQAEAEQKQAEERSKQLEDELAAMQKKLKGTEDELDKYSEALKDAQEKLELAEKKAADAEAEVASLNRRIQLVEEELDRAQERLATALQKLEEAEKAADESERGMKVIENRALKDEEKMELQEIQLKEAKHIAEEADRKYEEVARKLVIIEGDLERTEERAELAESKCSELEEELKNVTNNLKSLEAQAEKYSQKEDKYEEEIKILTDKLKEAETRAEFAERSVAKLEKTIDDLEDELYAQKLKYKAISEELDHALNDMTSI

- IC50: 29.4 ± 9.4 nM
SMILES: O=C(Nc1ccc(F)c(F)c1)c1cnc2ccc(N3CCC[C@@H]3c3cccc(F)c3)nn12 [TRACK]
